Source: paper PMC10107299, “Neutralizing the Impact of the Virulence Factor LecA from Pseudomonas aeruginosa on Human Cells with New Glycomimetic Inhibitors” (Angewandte Chemie (International Ed. in English), 2023)
≈ marks a conversion by molar mass, not a printed value. Read-outs that look alike come from different tables or passages of the source.

Tests used:
[1] = In vitro metabolic stability, mouse liver microsomes; format: in vitro ADME; details: N=3, read-out: CLint MLM
Method: (§1) Acetonitrile and caffeine were dispensed using a Mantis Formulatrix. Then samples were centrifuged for 20 min at 2.270 x g at 4 °C and the supernatants were transferred to 96-well Greiner V-bottom plates. Peak areas of each compound and of the internal standard were analyzed using the MultiQuant 3.0 software (AB Sciex). Peak areas of the respective compound were normalized to the internal standard peak area and to the respective peak areas at time point 0 min: (C/D)/(A/B) with A: peak area of the compound at time point 0 min, B: peak area of the internal standard at time point 0 min, C: peak area of the compound at the respective time point, D: peak area of the internal standard at the respective time point.
In vitro metabolic stability assay
Liver microsomes (mouse and human, Thermo Fisher) were thawed slowly on ice. 20 mg/mL of microsomes, 2 µL of a 100 µM solution of every compound and 183 µL of 100 mM phosphate buffer were incubated 5 min at 37 °C in a water bath. Reactions were initiated using 10 µL of 20 mM NADPH (CarlRoth). Samples were incubated in three replicates at 37 °C under gentle agitation at 150 rpm. At 0, 5, 15, 30, and 60 min, reactions were terminated by the addition of 180 µL acetonitrile using a Mantis Formulatrix dispenser. Samples were vortexed for 5 min using an Eppendorf MixMate vortex mixer and centrifuged at 2.270 x g for 20 min at 4 °C. The supernatants were transferred to 96-well Greiner V-bottom plates, sealed and analyzed according to the section HPLC-MS analysis. Peak areas of the respective time point of the compounds were normalized to the peak area at time point 0 min. Then half-life was calculated using linear regression (Microsoft Excel). Clint [µL/min/mg protein] was calculated using the following formula: […]

[2] = in vitro; format: in vitro ADME; details: pH 7.4, 37 °C
Method: Then, we analyzed the stability of the compounds in plasma. […] The observed increase in plasma stability of the tested amide derivatives compared to bisacylhydrazone 14 supports our design hypothesis for the isosteric replacement of the bisacylhydrazone linking motif. […]
Each compound dissolved in DMSO was added to mouse plasma (pH 7.4, 37 °C) or to human plasma (pH 7.4, 37 °C) to yield a final concentration of 1 µM. In addition, procaine and procainamide (dissolved in DMSO) were added to mouse plasma or to human plasma (pH 7.4, 37 °C) to yield a final concentration of 1 µM. Procaine served as positive control as it is unstable in mouse plasma. Procainamide served as negative control as it is stable in mouse plasma. The samples were incubated for 0 min, 15 min, 30 min, 60 min, 90 min, 120 min and 240 min at 37 °C. At each time point, 10 µl of the respective sample was extracted with 90 µL acetonitrile containing 12.5 ng/mL caffeine as internal standard for 5 min at 2000 rpm on a MixMate vortex […]
as §1, with “mixer (Eppendorf). Acetonitrile” for “Acetonitrile”, “point. […]” for “point.”
2 hours at 800 rpm on an Eppendorf MixMate vortex-mixer. Then samples were withdrawn from the respective chambers. To 25 µL of each dialysis sample, 25 µL of plasma and to 25 µL of plasma sample, 25 µL of dialysis buffer was added. Then 150 µL ice-cold extraction solvent (ACN/H2O (90:10) containing 12.5 ng/mL caffeine as internal standard) was added. Samples were incubated for 30 min on ice. Then samples were centrifuged at 4 °C at 2270 x g for 10 min.

[3] = Kinetic solubility in TBS/Ca2+ buffer (HPLC-MS); format: physicochemical; details: aqueous buffer, kinetic from dmso stock; TBS/Ca2+ buffer pH 7.4, 1 % DMSO, N≥3; read-out: Solubility S (kinetic)
Method: Next, we quantified the solubility of at least one representative of each new class and of one parent bisacylhydrazone in aqueous media (Table 1). […]
TBS/Ca2+ buffer (20 mM Tris, 137 mM NaCl, 2.6 mM KCl at pH 7.4 supplemented with 1 mM […]
CaCl2) in presence of 25% DMSO. […]
Kinetic solubility was determined on the analytical HPLC-MS using Compass QuantAnalysis quantification software (Bruker). Samples were prepared from DMSO stock solutions by dilution with TBS/Ca2+ buffer to 100 µM with 1% DMSO present. Samples were incubated on a shaker for 1 h at r.t., centrifuged (21380 g, 20 min), supernatants were diluted with DMSO (1:3), analyzed by HPLC-MS and fitted to the individual calibration curves.
Every experiment was repeated independently at least three times. […]

[4] = human plasma, read-out: Plasma stability t1/2 Human
[5] = mouse plasma, read-out: Plasma stability t1/2 Mouse

Structure (SMILES) | microsomal CLint at 1 µM [1] | half-life at 1 µM [2, 4] | half-life at 1 µM [2, 5] | solubility kinetic at 1 h [3]
O=C(CCc1ccc(O[C@@H]2O[C@H](CO)[C@H](O)[C@H](O)[C@H]2O)cc1)Nc1ccc(CCc2ccc(NC(=O)CCc3ccc(O[C@@H]4O[C@H](CO)[C@H](O)[C@H](O)[C@H]4O)cc3)cc2S(=O)(=O)O)c(S(=O)(=O)O)c1 [Compound L2] | 29.5 µL/min/mg | > 4 h | > 4 h | –
O=C(CCc1ccc(O[C@@H]2O[C@H](CO)[C@H](O)[C@H](O)[C@H]2O)cc1)Nc1ccc(OCCOc2ccc(NC(=O)CCc3ccc(O[C@@H]4O[C@H](CO)[C@H](O)[C@H](O)[C@H]4O)cc3)cc2)cc1 [Compound D2] | 29.6 µL/min/mg | 2.21 h | 3.04 h | 3.1 ± 2.1 µM (≈ 2.68 µg/mL)
O=C(CCc1ccc(O[C@@H]2O[C@H](CO)[C@H](O)[C@H](O)[C@H]2O)cc1)Nc1ccc(OCCOc2ccc(NC(=O)CCc3ccc(O[C@@H]4O[C@H](CO)[C@H](O)[C@H](O)[C@H]4O)cc3)cn2)nc1 [Compound H2] | 6.8 µL/min/mg | 3.58 h | 1.35 h | 14.8 ± 1.5 µM (≈ 12.8 µg/mL)
O=C(/C=C/c1ccc(O[C@@H]2O[C@H](CO)[C@H](O)[C@H](O)[C@H]2O)cc1)Nc1ccc(OCCOc2ccc(NC(=O)/C=C/c3ccc(O[C@@H]4O[C@H](CO)[C@H](O)[C@H](O)[C@H]4O)cc3)cc2)cc1 [Compound D1] | 22.4 µL/min/mg | 3.73 h | 3 h | 3.3 ± 1.3 µM (≈ 2.84 µg/mL)
O=C(/C=C/c1ccc(O[C@@H]2O[C@H](CO)[C@H](O)[C@H](O)[C@H]2O)cc1)Nc1ccc(OCCOc2ccc(NC(=O)/C=C/c3ccc(O[C@@H]4O[C@H](CO)[C@H](O)[C@H](O)[C@H]4O)cc3)cn2)nc1 [Compound H1] | 17.5 µL/min/mg | > 4 h | > 3 h | 8.1 ± 2.2 µM (≈ 6.99 µg/mL)
